“Also recorded” adds a separate entry of the source. Where a name gives a salt, the structure may show the parent alone.
Columns and labels:
[1] = Moisture sorption isotherm; assay type: physicochemical
Procedure: Moisture vapor isotherm data were collected with a DVS Advantage (Surface Measurement Systems Ltd, Alperton, United Kingdom). The sample powder (5 mg to 20 mg) was loaded on a tared pan of the DVS Advantage. The moisture sorption isotherm data were collected from 30-0-90-0-30% relative humidity in 10% relative humidity intervals. For each step, the dm/dt criteria was 0.001% over 5 minutes, a minimum dm/dt time of 30 minutes, and a maximum dm/dt of 120 minutes. Data was collected isothermally at 25° C. with a nitrogen flow rate of 200 cm^3/minute. The post DVS sample was kept at approximately 30% relative humidity before PXRD analysis.

[2] = Hygroscopicity / moisture sorption isotherm of solid state forms; assay type: physicochemical; settings: for hygroscopicity: general statement on the solid state form
Excerpt: FIG. 6A is a moisture sorption isotherm corresponding to the Amorphous Freebase (via dehydration).
FIG. 6C is a moisture sorption isotherm corresponding to the Tartrate Hydrate.
FIG. 6D is a moisture sorption isotherm corresponding to the Freebase Anhydrate Form D.
In one embodiment, the Tartrate Hydrate has a moisture sorption isotherm profile showing a weight gain of about 1% to about 2% when relative humidity is increased from about 10% relative humidity to about 90% relative humidity at a temperature of 25° C.

[3] = Physical stability of solid state forms (dehydration, desolvation, conversion); assay type: physicochemical; settings: for conversion upon drying: drying / ambient drying; for physical stability: general statement on the solid state form
Procedure: The Tartrate Hydrate dehydrated into Amorphous at low relative humidity and high temperature, e.g., <10% RH at 25° C. Shearing and compression potentially cause conversion to the amorphous tartrate, and therefore it is not suitable for compressing into tablet form. Additionally, the filter cake solidified during drying, resulting in the need for additional controls during drying.
In addition, Freebase Hydrate Form C can be grown into different particle sizes.
Freebase Anhydrate Form D can be manufactured only when the water content of the crystallization solvent is low, and will convert to Freebase Hydrate Form C in solutions at high water content. The manufacture of Freebase Anhydrate Form D thus requires strict control of water content. Freebase Anhydrate Form D is slow to crystallize, and difficult to manufacture in higher yield. […] Freebase Hydrate Form C will convert to Freebase Anhydrate Form D in a solution of ethyl acetate with low water content.
The resulting amorphous hydrochloride is hygroscopic. Yields obtained for each of the crystalline hydrochlorides generally have been in the 10% to 15% range.

[4] = Stability of isolated solid form at ambient conditions; assay type: physicochemical; settings: after isolation
[5] = Solid state accelerated stability study; assay type: physicochemical; settings: for chemical stability: solid state accelerated stability study
Procedure: Samples (approximately 1 mg to 2 mg) of the solid state form were weighed into glass vials and tested as described below.

[6] = Chemical stability of solid state forms in closed vials at controlled temperature and relative humidity; assay type: physicochemical; settings: general statement on the solid state form
Procedure: The Amorphous Freebase, however, is hygroscopic and can comprise as much as 12% by weight water at 25° C./90% relative humidity. Environmental controls potentially are required to ensure appropriate control of potency and water content during storage, dispensing, and handling of the Amorphous Freebase.
The Tartrate Hydrate, however, potentially will convert to an amorphous tartrate below 10% relative humidity, when heated, or when compressed or under shear.

Equilibrium solubility = assay type: physicochemical
Procedure: After equilibration, the mixtures were inspected to assure that the amount of excess solid was sufficient to permit re-characterization. […] The pH of aqueous suspensions was determined after equilibration. The solid phase was separated from the liquid phase by centrifugation at 3300 rpm at equilibration temperatures (i.e., 25° C. or 37° C.). The supernatant was then filtered (13 mm Acrodisc® syringe filter with 0.45μ GHP membrane, Pall® Life Sciences, Ann Arbor, Mich.) to discard the initial 2 mL (to saturate filter) and capture the last 1 mL for analysis. The filtrate was diluted as needed for quantification of the material studied by HPLC method (as detailed elsewhere herein). The physical form of the recovered solid was characterized by powder X-ray diffraction to examine whether or not phase change had occurred

[7] = Study 2-Part 2: methotrexate PK alone or with Compound 1 in subjects with RA; assay type: in vivo; settings: human; for CL renal: urine and plasma
Procedure: Subjects received study drug for 26 consecutive days (Study Days 3 through 28) and a single morning dose of study drug on Study Day 29. […] Subjects were confined to the study site for a total of 10 days—from Day 1 to Day 4 and from Day 27 to Day 31.
Samples quantified below the LLOQ were reported as zero.
Renal clearance (CLr) was calculated as Au,0-12/AUC0-12 at steady state.

[8] = Pharmacokinetic interaction of Compound 1 and methotrexate (dose-normalized AUC); assay type: in vivo, human; settings: FIG. 35B
isolated Treg cells = isolated Treg cells and rheumatoid arthritis synovial fluid; cited from earlier work

Q: Which “Moisture sorption (reversibly sorbs up to)” value ([1]; 90% relative humidity at 25° C.) does the source give for `CC[C@@H]1CN(C(=O)NCC(F)(F)F)C[C@@H]1c1cnc2cnc3[nH]ccc3n12` [Freebase Anhydrate Form D, (3S,4R)-3-ethyl-4-(3H-imidazo[1,2-a]pyrrolo[2,3-e]pyrazin-8-yl)-N-(2,2,2-trifluoroethyl)pyrrolidine-1-carboxamide] here?
A: up to 1.8%

Q: What about the “water uptake (reversibly hygroscopic)” value ([2]; 90% RH at 25° C.) of the same molecule?
A: up to 1.8%

Q: And the hygroscopicity [2]?
A: reversibly hygroscopic

Q: For `CC[C@@H]1CN(C(=O)NCC(F)(F)F)C[C@@H]1c1cnc2cnc3[nH]ccc3n12` [Freebase Hydrate Form B, (3S,4R)-3-ethyl-4-(3H-imidazo[1,2-a]pyrrolo[2,3-e]pyrazin-8-yl)-N-(2,2,2-trifluoroethyl)pyrrolidine-1-carboxamide], which conversion upon drying [3] is on record?
A: convert to the Amorphous Freebase upon drying

Q: And the physical stability [3]?
A: not physically stable

Q: What about the “Stability at ambient conditions” value [4] of the same molecule?
A: not stable after isolation at ambient conditions and readily dehydrated to the Amorphous Freebase; also recorded: not stable at ambient conditions and readily dehydrates to the Amorphous Freebase

Q: Which “Growth of degradation products” value ([5]; 80/75 10 days, 50/75 6 weeks, 40/75 and 30/65 24 weeks, 25/60 12 months (Temp ° C./% RH)) does the source give for `CC[C@@H]1CN(C(=O)NCC(F)(F)F)C[C@@H]1c1cnc2cnc3[nH]ccc3n12` [Freebase Hydrate Form C, (3S,4R)-3-ethyl-4-(3H-imidazo[1,2-a]pyrrolo[2,3-e]pyrazin-8-yl)-N-(2,2,2-trifluoroethyl)pyrrolidine-1-carboxamide] here?
A: no growth of degradation products

Q: What about the chemical stability [5] of the same molecule?
A: acceptable

Q: And the “Change in attributes evaluated (description, crystal form, assay, impurities and water content)” value ([5]; storage conditions of the accelerated stability study)?
A: No material change

Q: What about the chemical stability [6] of the same molecule?
A: excellent chemical stability; also recorded: good chemical stability

Q: What about the hygroscopicity ([1]; moisture sorption isotherm analysis, 25° C.) of the same molecule?
A: not hygroscopic

Q: And the “temperature up to which no dehydration occurs” value ([3]; drying)?
A: around 110 °C

Q: And the physical stability [3]?
A: excellent and good

Q: And the “stability under mechanical processing” value ([3]; milling, compression)?
A: stable under mechanical processing

Q: What about the Solubility (Equilibrium solubility; FasSIF (pH 6.5 at 37° C.)) of the same molecule?
A: 0.22 mg/mL

Q: What about the Solubility (Equilibrium solubility; pH 1 at 25° C.) of the same molecule?
A: 55.3 mg/mL

Q: What about the hygroscopicity [2] of the same molecule?
A: low hygroscopicity

Q: Which results are given for `CC[C@@H]1CN(C(=O)NCC(F)(F)F)C[C@@H]1c1cnc2cnc3[nH]ccc3n12` [Freebase Solvate Form A, (3S,4R)-3-ethyl-4-(3H-imidazo[1,2-a]pyrrolo[2,3-e]pyrazin-8-yl)-N-(2,2,2-trifluoroethyl)pyrrolidine-1-carboxamide]?
A: conversion upon drying [3]: convert to the Amorphous Freebase upon drying; physical stability [3]: not physically stable; Stability at ambient conditions [4]: not stable after isolation at ambient conditions and readily dehydrated to the Amorphous Freebase

Q: For `CC[C@@H]1CN(C(=O)NCC(F)(F)F)C[C@@H]1c1cnc2cnc3[nH]ccc3n12` [Hydrochloride Solvate Form AA, (3S,4R)-3-ethyl-4-(3H-imidazo[1,2-a]pyrrolo[2,3-e]pyrazin-8-yl)-N-(2,2,2-trifluoroethyl)pyrrolidine-1-carboxamide], which conversion upon drying [3] is on record?
A: convert to an amorphous hydrochloride upon ambient drying

Q: Which conversion upon drying [3] does the source give for `CC[C@@H]1CN(C(=O)NCC(F)(F)F)C[C@@H]1c1cnc2cnc3[nH]ccc3n12` [Hydrochloride Solvate Form BB, (3S,4R)-3-ethyl-4-(3H-imidazo[1,2-a]pyrrolo[2,3-e]pyrazin-8-yl)-N-(2,2,2-trifluoroethyl)pyrrolidine-1-carboxamide] here?
A: convert to an amorphous hydrochloride upon ambient drying

Q: For `CC[C@@H]1CN(C(=O)NCC(F)(F)F)C[C@@H]1c1cnc2cnc3[nH]ccc3n12` [Hydrochloride Solvate Form CC, (3S,4R)-3-ethyl-4-(3H-imidazo[1,2-a]pyrrolo[2,3-e]pyrazin-8-yl)-N-(2,2,2-trifluoroethyl)pyrrolidine-1-carboxamide], which conversion upon drying [3] is on record?
A: convert to an amorphous hydrochloride upon ambient drying

Q: For `CC[C@@H]1CN(C(=O)NCC(F)(F)F)C[C@@H]1c1cnc2cnc3[nH]ccc3n12` [L-Maleate Form AAA, (3S,4R)-3-ethyl-4-(3H-imidazo[1,2-a]pyrrolo[2,3-e]pyrazin-8-yl)-N-(2,2,2-trifluoroethyl)pyrrolidine-1-carboxamide], which chemical stability [6] is on record?
A: less chemically stable

Q: What does the source list for `CC[C@@H]1CN(C(=O)NCC(F)(F)F)C[C@@H]1c1cnc2cnc3[nH]ccc3n12` [L-Maleate Form BBB, (3S,4R)-3-ethyl-4-(3H-imidazo[1,2-a]pyrrolo[2,3-e]pyrazin-8-yl)-N-(2,2,2-trifluoroethyl)pyrrolidine-1-carboxamide]?
A: Degradation on storage ([5]; 50° C./75% relative humidity (open and closed glass vials)): degraded to products that were not observed for the Freebase Hydrate Form C or the Tartrate Hydrate; chemical stability ([5]; listed as L-maleate salt): prone to chemical degradation; chemical stability [6]: less chemically stable

Q: Which hygroscopicity [2] does the source give for `CCC1CN(C(=O)NCC(F)(F)F)CC1c1cnc2cnc3[nH]ccc3n12.Cl` (stereo not drawn) [amorphous hydrochloride] here?
A: hygroscopic

Q: With `CN(Cc1cnc2nc(N)nc(N)c2n1)c1ccc(C(=O)N[C@@H](CCC(=O)O)C(=O)O)cc1` [methotrexate] as the molecule, how does the Tmax ([7]; plasma, 6 mg, Compound 1 6 mg BID Group, Day 1 (alone)) read?
A: 2.5 h

Q: What about the half-life ([7]; plasma, 6 mg, Compound 1 6 mg BID Group, Day 29 (with Compound 1), harmonic mean ± pseudo-SD, read-out: t1/2 (terminal elimination half-life) (converted)) of the same molecule?
A: 4.7 ± 1.3 h

Q: What about the Tmax ([7]; plasma, 12 mg, Compound 1 12 mg BID Group, Day 29 (with Compound 1)) of the same molecule?
A: 2.5 h

Q: What about the Tmax ([7]; plasma, 24 mg, Compound 1 24 mg BID Group, Day 1 (alone)) of the same molecule?
A: 3 h

Q: What about the Tmax ([7]; plasma, 24 mg, Compound 1 24 mg BID Group, Day 29 (with Compound 1)) of the same molecule?
A: 2.5 h

Q: What about the CL renal ([7]; 6 mg, Compound 1 6 mg BID Group, Day 1 (alone)) of the same molecule?
A: 110 mL/min

Q: What about the CL renal ([7]; 6 mg, Compound 1 6 mg BID Group, Day 29 (with Compound 1)) of the same molecule?
A: 90.5 mL/min

Q: And the CL renal ([7]; 12 mg, Compound 1 12 mg BID Group, Day 1 (alone))?
A: 102 mL/min

Q: What about the CL renal ([7]; 12 mg, Compound 1 12 mg BID Group, Day 29 (with Compound 1)) of the same molecule?
A: 79.7 mL/min

Q: And the CL renal ([7]; 24 mg, Compound 1 24 mg BID Group, Day 1 (alone))?
A: 124 mL/min

Q: What about the CL renal ([7]; 24 mg, Compound 1 24 mg BID Group, Day 29 (with Compound 1)) of the same molecule?
A: 107 mL/min

Q: And the CL renal ([7]; Placebo group, Day 1)?
A: 72 mL/min

Q: And the CL renal ([7]; Placebo group, Day 29)?
A: 96.7 mL/min

Q: And the “effect of concomitant Compound 1 administration on methotrexate dose-normalized AUC” value [8]?
A: lack of effect

B1: BT-061: humanized agonistic monoclonal antibody that binds to a unique epitope of human CD4 (antibody, chains of the INN, looked up, V domains shown)
VH: EEQLVESGGGLVKPGGSLRLSCAASGFSFSDCRMYWLRQAPGKGLEWIGVISVKSENYGANYAESVRGRFTISRDDSKNTVYLQMNSLKTEDTAVYYCSASYYRYDVGAWFAYWGQGTLVTVSS
VL: DIVMTQSPDSLAVSLGERATINCRASKSVSTSGYSYIYWYQQKPGQPPKLLIYLASILESGVPDRFSGSGSGTDFTLTISSLQAEDVAVYYCQHSRELPWTFGQGTKVEIK
Q: Which results are given for B1?
A: CD4+ and CD8+ T effector cell proliferation (isolated Treg cells): suppression; expression of pro-inflammatory cytokines (isolated Treg cells): reduction; production of the anti-inflammatory cytokine TGFβ (isolated Treg cells): increase

Reference: patent US10730883B2 (AbbVie Inc., priority 2015, dated 2020)
